Results reported in ChEMBL document CHEMBL1145364, “A novel artemisinin-quinine hybrid with potent antimalarial activity” (Bioorg Med Chem Lett, 2007).

Tests used:
Assay type in all cases: functional, organism-based
Plasmodium falciparum [1] = test: Antimalarial activity against Plasmodium falciparum 3D7 after 48 hrs by pLDH assay; conditions: 3D7, 48 h
Plasmodium falciparum [2] = test: Antimalarial activity against Plasmodium falciparum 3D7 after 72 hrs by pLDH assay; conditions: 3D7, 72 h
Plasmodium falciparum [3] = test: Antimalarial activity against chloroquine-resistant Plasmodium falciparum FcB1 after 48 hrs by pLDH assay; conditions: FcB1, 48 h
Plasmodium falciparum [4] = test: Antimalarial activity against chloroquine-resistant Plasmodium falciparum FcB1 after 72 hrs by pLDH assay; conditions: FcB1, 72 h

Compound	IC50 (Plasmodium falciparum [1])	IC50 (Plasmodium falciparum [2])	IC50 (Plasmodium falciparum [3])	IC50 (Plasmodium falciparum [4])
COc1ccc2nccc([C@@H](O)C3CC4CCN3CC4CC(=O)O[C@@H]3OC4O[C@]5(C)CCC6[C@H](C)CCC([C@H]3C)[C@@]46OO5)c2c1 (some centres not stated)	8.95 nM	10.4 nM	9.59 nM	10.2 nM
C[C@@H]1CC[C@H]2[C@@H](C)C(=O)O[C@@H]3O[C@@]4(C)CC[C@@H]1[C@]32OO4 [ARTEMISININ]	49.4 nM	45.5 nM	50 nM	55 nM
C=C[C@H]1CN2CC[C@H]1C[C@H]2[C@H](O)c1ccnc2ccc(OC)cc12 [QUININE]	149 nM	73.5 nM	96.8 nM	75.3 nM
